Laboratory results taken from ChEMBL document CHEMBL4610057, “Benzopyrimidodiazepinone inhibitors of TNK2” (Bioorg Med Chem Lett, 2020).

What was measured:
[1] = in vivo; conditions: CD1, mouse, iv, 3 mg/kg
[2] = Metabolic stability in mouse liver microsomes assessed as parent compound remaining measured after 60 mins; type: ADME, Microsome
[3] = in vivo; conditions: CD1, mouse, iv, 3 mg/kg; remark: listed apart in the source
[4] = in vivo; conditions: CD1, mouse, po, 10 mg/kg
[5] = mouse, microsomes
[6] = in vivo; conditions: CD1, mouse, po, 10 mg/kg; remark: listed apart in the source
[7] = in vitro; conditions: mouse, hepatocytes
[8] = in vitro; conditions: mouse, liver microsomes

Compound `COc1cc(N2CCN(C)CC2)ccc1Nc1ncc2c(n1)N(C)c1ccccc1C(=O)N2` has a half-life [1] of 42 min, a Stability ([2]; microsomes, 1 h) of 2% and a clearance [3] of 150 mL/min/kg. For the same compound, the bioavailability [4] was 5%, the t1/2 [5] was 28 min and the AUC(0-inf) [6] was 56 ng·h/mL. For the same compound, the half-life [7] was 347 min.

Work on `COc1cc2c(cc1Nc1ccc(Nc3ncc4c(n3)N(C)c3ccccc3C(=O)N4)cc1)CCN(C)C2` yielded a half-life [1] of 600 min, a clearance [3] of 120 mL/min/kg and a bioavailability [4] of 7%. For the same compound, the AUC(0-inf) [6] was 125 ng·h/mL.

For `COc1cc(N2CCN(C)CC2)ccc1Nc1ncc2c(n1)N(C)c1ccccc1C(=O)N2C`, the half-life [1] was 264 min, the remaining at 1 h ([2]; liver microsomes, read-out: Stability) was 40% and the clearance [3] was 25 mL/min/kg. The bioavailability [4] was 46%, the AUC(0-inf) [6] was 2000 ng·h/mL and the half-life [8] was 22 min. For the same compound, the half-life [7] was > 500 min.
